Data on three compounds can be found in patent US20220002293A1, “8-CYCLOPENTYL-7-OXO-2-(4-PIPERAZIN-1-YL-PHENYLAMINO)-7, 8-DIHYDRO-PYRIDO [2,3-D]PYRIMIDINE-6-CARBONITRILE AND USES THEREOF IN TREATING PROLIFERATIVE DISORDERS” (ONCONOVA THERAPEUTICS, INC., priority 2018, published 2022).

The target in one data set is FGFR1 (Homo sapiens, UniProt P11362). Briefly: Kinase inhibition, FGFR1. The data set is classed as biochemical. To be noted: 10 μM ATP; read-out: Compound IC50 (M), FGFR1. On the procedure: (§1) The compounds in Table 1 were tested for the ability to inhibit the kinase activity of the listed protein kinases.
The target in a further data set is ABL1 (Homo sapiens, UniProt P00519). Briefly: Kinase inhibition, ABL1. The data set is classed as biochemical. To be noted: 10 μM ATP; read-out: Compound IC50 (M), ABL1. On the procedure:
as §1

Data set [1] relates to GRANTA-519 (human B Cell lymphoma). As to the kind of experiment: Cytotoxicity assay (CellTiter-Glo), GRANTA-519. To be noted: for IC50: read-out: Absolute IC50. (ATP-based viability assays read luminescence as a measure of living cells.)
Excerpt: (§3) The homogeneous assay procedure involves adding a single reagent (CellTiter-Glo® Reagent) directly to cells cultured in serum-supplemented medium. The homogeneous “add-mix-measure” format results in cell lysis and generation of a luminescent signal proportional to the amount of ATP present. The amount of ATP is directly proportional to the number of cells present in culture. The assay generates a luminescent signal, produced by the luciferase reaction.
(§4) Determination of the Half Maximal Inhibition Concentration IC50: • 1. Harvest cells during the logarithmic growth period and count cell number using Count-star. • 2. […] Add 90 μL cell suspensions to two 96-well plates (plates A and B) with the final cell density of 4×10^3 cells/well. (cell concentration is adjusted according to the data base or density optimization assay.)
(§5) Next day: For the Plates of T0 Reading: • 1) Add 10 μL culture medium to each well of plate A for T0 reading. • 2) Equilibrate the plate and its content at RT for approximately 30 min. • 3) Add 50 μL CellTiter-Glo (CTG) reagent to each well. • 4) Mix content for 5 min on an orbital shaker to induce cell lysis. • 5) Allow the plate to incubate at RT for 20 min to stabilize luminescent signal. Note: Uneven luminescent signal within standard plates can be caused by temperature gradients, uneven seeding of cells or edge effects in multiwell plates. • 6) Record luminescence (T0) using EnVision Multi Label Reader.
(§6) Note: Uneven luminescent signal within standard plates can be caused by temperature gradients, uneven seeding of cells or edge effects in multiwall plates. • 9) Record luminescence.
(§7) In order to calculate absolute IC50 (EC50), a dose-response curve was fitted using nonlinear regression model with a sigmoidal dose response. The formula for calculating surviving rate is shown below and the absolute IC50 (EC50) was calculated according to the dose-response curve generated by GraphPad Prism 5.0.
(§8) The surviving rate (%)=(LumTest article−LumMedium control)/(LumNon-treated−LumMedium control)×100%.
The next data set deals with FYN (Homo sapiens, UniProt P06241). Briefly: Kinase inhibition, FYN. The data set is classed as biochemical. To be noted: 10 μM ATP; read-out: Compound IC50 (M), FYN. As to the method: as §1
A further data set has as its target CDK6/cyclin D3 (Homo sapiens, UniProt Q00534). As to the kind of experiment: Kinase inhibition, CDK6/cyclin D3. To be noted: 10 μM ATP; read-out: Compound IC50 (M), CDK6/cyclin D3. The data set is classed as biochemical. As to the method: as §1
The subject of data set [2] is DU 145 (human prostate cancer). Briefly: Cytotoxicity assay (CellTiter-Glo), DU 145. The data set is classed as cell-based. To be noted: for IC50: CellTiter-Glo, read-out: Absolute IC50. The source says:
(§2) Determination of the Half Maximal Inhibition Concentration IC50: • 1.

A further data set addresses CDK9/cyclin K (Homo sapiens, UniProt P50750). Briefly: Kinase inhibition, CDK9/cyclin K. The data set is classed as biochemical. To be noted: 10 μM ATP; read-out: Compound IC50 (M), CDK9/cyclin K. On the procedure:
as §1

The target of a further data set is PDGFRb (Homo sapiens, UniProt P09619). Briefly: Kinase inhibition, PDGFRb. The data set is classed as biochemical. To be noted: 10 μM ATP; read-out: Compound IC50 (M), PDGFRb. On the procedure: as §1
Another data set deals with CDK4/cyclin D1 (Homo sapiens, UniProt P11802). As to the kind of experiment: Kinase inhibition, CDK4/cyclin D1. The data set is classed as biochemical. The following applies: 10 μM ATP; read-out: Compound IC50 (M), CDK4/cyclin D1. As to the method:
as §1

A further data set addresses CDK6/cyclin D1 (Homo sapiens, UniProt Q00534). Briefly: Kinase inhibition, CDK6/cyclin D1. The data set is classed as biochemical. The following applies: 10 μM ATP; values <1 nM estimated from best curve fitting; read-out: Compound IC50 (M), CDK6/cyclin D1. On the procedure: as §1
The target of a further data set is T1, PKG2/PRKG2 (Homo sapiens, UniProt Q13237).
T1 sequence (Q13237 1-762): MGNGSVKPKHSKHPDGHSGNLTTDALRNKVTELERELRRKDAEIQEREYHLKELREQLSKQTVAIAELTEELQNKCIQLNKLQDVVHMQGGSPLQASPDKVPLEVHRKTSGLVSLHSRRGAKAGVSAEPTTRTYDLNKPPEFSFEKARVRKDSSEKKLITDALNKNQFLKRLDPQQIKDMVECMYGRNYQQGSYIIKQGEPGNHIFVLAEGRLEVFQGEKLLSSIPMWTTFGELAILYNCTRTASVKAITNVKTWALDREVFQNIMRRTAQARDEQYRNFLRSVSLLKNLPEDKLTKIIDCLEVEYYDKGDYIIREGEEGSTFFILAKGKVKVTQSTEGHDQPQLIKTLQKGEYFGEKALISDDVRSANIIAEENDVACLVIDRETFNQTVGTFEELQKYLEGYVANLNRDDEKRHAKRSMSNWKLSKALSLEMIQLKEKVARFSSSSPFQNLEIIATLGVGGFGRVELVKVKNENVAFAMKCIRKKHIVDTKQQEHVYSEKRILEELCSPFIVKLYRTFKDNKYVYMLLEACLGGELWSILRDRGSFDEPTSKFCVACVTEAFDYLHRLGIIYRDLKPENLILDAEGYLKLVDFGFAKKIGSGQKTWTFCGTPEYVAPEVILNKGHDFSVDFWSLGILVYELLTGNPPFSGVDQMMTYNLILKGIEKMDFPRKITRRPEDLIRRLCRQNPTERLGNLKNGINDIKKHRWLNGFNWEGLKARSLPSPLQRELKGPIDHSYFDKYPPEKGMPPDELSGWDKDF
Briefly: Kinase inhibition, PKG2/PRKG2. The data set is classed as biochemical. The following applies: 10 μM ATP; read-out: Compound IC50 (M), PKG2/PRKG2. On the procedure:
as §1

The next data set has as its target FLT4/VEGFR3 (Homo sapiens, UniProt P35916). As to the kind of experiment: Kinase inhibition, FLT4/VEGFR3. The data set is classed as biochemical. The following applies: 10 μM ATP; read-out: Compound IC50 (M), FLT4/VEGFR3. As to the method: The compounds in Table 1 were tested for the ability to inhibit the kinase activity of the listed protein kinases. […]
For the next data set, the target named is CDK4/cyclin D3 (Homo sapiens, UniProt P11802). As to the kind of experiment: Kinase inhibition, CDK4/cyclin D3. The data set is classed as biochemical. The following applies: 10 μM ATP; read-out: Compound IC50 (M), CDK4/cyclin D3. On the procedure: as §1
Another data set deals with T2, FLT3 (Homo sapiens, UniProt P36888).
T2 sequence (P36888 27-993): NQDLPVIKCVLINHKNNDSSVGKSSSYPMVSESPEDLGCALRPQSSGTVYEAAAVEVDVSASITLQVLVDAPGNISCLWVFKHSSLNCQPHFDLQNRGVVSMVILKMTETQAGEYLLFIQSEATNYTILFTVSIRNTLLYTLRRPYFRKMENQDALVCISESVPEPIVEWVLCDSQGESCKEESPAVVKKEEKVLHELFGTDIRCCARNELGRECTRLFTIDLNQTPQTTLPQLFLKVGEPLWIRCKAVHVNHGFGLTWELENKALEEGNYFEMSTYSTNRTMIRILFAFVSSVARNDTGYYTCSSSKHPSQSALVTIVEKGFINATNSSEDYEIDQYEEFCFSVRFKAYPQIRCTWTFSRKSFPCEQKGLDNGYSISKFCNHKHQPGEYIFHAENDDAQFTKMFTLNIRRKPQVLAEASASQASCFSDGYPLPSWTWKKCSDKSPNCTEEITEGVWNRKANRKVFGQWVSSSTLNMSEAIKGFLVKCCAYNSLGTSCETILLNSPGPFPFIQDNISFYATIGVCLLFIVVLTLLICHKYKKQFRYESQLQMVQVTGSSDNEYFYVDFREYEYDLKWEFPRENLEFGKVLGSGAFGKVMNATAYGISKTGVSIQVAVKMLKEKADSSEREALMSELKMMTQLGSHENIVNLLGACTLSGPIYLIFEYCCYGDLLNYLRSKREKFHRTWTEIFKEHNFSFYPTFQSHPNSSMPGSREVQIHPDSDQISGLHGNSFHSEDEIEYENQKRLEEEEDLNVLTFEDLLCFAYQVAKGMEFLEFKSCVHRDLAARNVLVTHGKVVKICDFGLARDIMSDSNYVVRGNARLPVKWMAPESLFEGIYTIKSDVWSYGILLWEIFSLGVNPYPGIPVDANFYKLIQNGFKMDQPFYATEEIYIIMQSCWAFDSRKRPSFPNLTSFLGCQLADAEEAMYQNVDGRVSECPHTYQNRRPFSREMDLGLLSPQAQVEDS
As to the kind of experiment: Kinase inhibition, FLT3. The data set is classed as biochemical. The following applies: 10 μM ATP; values <1 nM estimated from best curve fitting; read-out: Compound IC50 (M), FLT3. On the procedure:
as §1

Data set [3] deals with GRANTA-519 (human B Cell lymphoma).
Excerpt: as §3, §4, §5, §6, §7, §8
In a further data set the target is RET (Homo sapiens, UniProt P07949). Briefly: Kinase inhibition, RET. The data set is classed as biochemical. To be noted: 10 μM ATP; read-out: Compound IC50 (M), RET. As to the method:
as §1

Data set [4] relates to K-562 (human chronic myelogenous leukemia). As to the kind of experiment: Cytotoxicity assay (CellTiter-Glo), K-562. The data set is classed as cell-based. To be noted: for IC50: CellTiter-Glo, read-out: Absolute IC50.
Excerpt: as §2

The subject of data set [5] is HeLa (human cervical cancer). As to the kind of experiment: Cytotoxicity assay (CellTiter-Glo), HeLa. The data set is classed as cell-based.
Excerpt: as §2

The target in a further data set is T3, ARK5/NUAK1 (Homo sapiens, UniProt O60285).
T3 sequence (O60285 1-661): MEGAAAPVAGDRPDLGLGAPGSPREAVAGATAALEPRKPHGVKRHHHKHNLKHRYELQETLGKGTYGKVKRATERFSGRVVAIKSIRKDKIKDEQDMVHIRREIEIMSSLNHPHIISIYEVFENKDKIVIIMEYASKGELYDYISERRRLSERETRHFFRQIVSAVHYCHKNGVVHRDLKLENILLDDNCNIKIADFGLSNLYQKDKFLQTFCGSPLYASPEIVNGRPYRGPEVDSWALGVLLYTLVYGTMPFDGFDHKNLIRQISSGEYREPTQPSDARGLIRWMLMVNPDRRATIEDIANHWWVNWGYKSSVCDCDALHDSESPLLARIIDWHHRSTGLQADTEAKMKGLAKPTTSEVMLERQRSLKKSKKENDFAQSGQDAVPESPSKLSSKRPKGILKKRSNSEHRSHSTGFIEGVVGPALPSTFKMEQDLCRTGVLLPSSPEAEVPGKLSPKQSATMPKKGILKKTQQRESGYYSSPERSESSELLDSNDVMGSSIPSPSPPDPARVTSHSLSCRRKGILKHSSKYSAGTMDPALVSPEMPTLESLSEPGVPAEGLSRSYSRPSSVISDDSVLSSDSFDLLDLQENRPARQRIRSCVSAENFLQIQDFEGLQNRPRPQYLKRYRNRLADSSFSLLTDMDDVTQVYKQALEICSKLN
Briefly: Kinase inhibition, ARK5/NUAK1. The data set is classed as biochemical. To be noted: 10 μM ATP; values <1 nM estimated from best curve fitting; read-out: Compound IC50 (M), ARK5/NUAK1. On the procedure:
as §1

Where two headings read alike, the source gives them in different places. A value given as a limit tells only on which side of the number the result lay.

FLT4/VEGFR3, sequence (P35916 25-1363): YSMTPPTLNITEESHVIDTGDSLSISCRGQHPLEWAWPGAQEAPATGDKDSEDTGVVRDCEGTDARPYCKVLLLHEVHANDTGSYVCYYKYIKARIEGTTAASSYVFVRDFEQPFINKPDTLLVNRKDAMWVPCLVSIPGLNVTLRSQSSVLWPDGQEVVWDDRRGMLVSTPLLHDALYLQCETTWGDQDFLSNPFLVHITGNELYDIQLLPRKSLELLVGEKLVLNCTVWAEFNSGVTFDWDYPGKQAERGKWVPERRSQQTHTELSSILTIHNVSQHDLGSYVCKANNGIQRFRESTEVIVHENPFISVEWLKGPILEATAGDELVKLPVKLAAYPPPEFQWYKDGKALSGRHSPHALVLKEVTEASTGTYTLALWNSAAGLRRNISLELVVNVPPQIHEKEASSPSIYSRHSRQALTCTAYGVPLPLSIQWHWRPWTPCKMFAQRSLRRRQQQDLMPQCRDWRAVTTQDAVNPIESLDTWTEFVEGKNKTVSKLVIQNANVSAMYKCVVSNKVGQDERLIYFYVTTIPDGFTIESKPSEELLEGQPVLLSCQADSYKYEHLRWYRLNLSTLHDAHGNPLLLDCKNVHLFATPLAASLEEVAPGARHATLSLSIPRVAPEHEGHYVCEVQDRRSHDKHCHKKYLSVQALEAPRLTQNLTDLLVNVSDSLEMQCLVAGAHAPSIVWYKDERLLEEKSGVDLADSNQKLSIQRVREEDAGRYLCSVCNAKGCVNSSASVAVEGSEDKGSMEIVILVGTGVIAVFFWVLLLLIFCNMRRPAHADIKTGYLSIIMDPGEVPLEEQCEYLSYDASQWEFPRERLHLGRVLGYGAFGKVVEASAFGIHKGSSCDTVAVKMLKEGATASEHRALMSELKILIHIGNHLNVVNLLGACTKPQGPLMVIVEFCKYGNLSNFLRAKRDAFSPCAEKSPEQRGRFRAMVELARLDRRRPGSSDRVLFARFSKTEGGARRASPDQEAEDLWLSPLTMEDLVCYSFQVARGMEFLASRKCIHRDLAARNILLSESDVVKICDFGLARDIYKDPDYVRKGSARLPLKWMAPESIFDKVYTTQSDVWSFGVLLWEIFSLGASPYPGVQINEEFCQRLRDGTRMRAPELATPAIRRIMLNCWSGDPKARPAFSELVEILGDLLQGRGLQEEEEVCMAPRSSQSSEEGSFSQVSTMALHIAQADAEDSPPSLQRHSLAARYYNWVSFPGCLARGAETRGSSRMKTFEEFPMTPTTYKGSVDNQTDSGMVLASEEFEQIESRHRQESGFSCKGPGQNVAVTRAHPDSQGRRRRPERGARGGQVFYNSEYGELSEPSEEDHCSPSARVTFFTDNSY
CDK6/cyclin D3, sequence (Q00534 whole entry): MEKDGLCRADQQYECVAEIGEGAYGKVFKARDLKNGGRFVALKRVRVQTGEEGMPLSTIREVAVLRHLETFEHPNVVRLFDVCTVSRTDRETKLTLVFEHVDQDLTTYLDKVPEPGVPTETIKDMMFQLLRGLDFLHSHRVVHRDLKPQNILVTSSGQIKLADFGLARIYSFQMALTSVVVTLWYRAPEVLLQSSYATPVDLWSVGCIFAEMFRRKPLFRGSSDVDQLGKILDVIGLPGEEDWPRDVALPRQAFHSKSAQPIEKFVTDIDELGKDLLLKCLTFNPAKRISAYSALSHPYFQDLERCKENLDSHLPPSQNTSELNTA
CDK6/cyclin D3, sequence (P30281 whole entry partner): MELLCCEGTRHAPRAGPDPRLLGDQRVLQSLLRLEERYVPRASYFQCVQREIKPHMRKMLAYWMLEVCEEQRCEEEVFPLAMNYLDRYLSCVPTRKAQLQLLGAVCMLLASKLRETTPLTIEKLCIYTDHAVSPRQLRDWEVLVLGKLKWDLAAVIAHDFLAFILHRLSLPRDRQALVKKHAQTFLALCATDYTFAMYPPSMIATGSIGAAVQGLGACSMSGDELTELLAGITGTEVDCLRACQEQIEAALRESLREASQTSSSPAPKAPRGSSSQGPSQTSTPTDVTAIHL
CDK6/cyclin D1, sequence (Q00534 whole entry): as the sequence (Q00534 whole entry) above
CDK6/cyclin D1, sequence (P24385 whole entry partner): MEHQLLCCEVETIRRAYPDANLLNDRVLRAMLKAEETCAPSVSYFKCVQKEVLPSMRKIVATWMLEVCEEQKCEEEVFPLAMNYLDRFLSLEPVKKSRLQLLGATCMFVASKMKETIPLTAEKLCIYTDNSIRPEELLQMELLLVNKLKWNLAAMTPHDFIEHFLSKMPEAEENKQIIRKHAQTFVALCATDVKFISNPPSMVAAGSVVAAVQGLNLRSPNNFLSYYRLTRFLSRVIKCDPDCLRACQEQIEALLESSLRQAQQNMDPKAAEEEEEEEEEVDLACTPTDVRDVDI
CDK4/cyclin D1, sequence (P11802 whole entry): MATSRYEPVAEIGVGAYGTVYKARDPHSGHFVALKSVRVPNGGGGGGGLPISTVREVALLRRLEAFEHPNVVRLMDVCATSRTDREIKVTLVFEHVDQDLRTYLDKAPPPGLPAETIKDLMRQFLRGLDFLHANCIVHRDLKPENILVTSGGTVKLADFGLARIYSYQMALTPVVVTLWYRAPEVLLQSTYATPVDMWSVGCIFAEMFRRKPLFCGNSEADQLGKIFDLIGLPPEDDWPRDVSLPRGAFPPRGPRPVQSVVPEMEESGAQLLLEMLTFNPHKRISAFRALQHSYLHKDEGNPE
CDK4/cyclin D1, sequence (P24385 whole entry partner): as the sequence (P24385 whole entry partner) above
CDK4/cyclin D3, sequence (P11802 whole entry): as the sequence (P11802 whole entry) above
CDK4/cyclin D3, sequence (P30281 whole entry partner): as the sequence (P30281 whole entry partner) above
FGFR1, sequence (P11362 22-822): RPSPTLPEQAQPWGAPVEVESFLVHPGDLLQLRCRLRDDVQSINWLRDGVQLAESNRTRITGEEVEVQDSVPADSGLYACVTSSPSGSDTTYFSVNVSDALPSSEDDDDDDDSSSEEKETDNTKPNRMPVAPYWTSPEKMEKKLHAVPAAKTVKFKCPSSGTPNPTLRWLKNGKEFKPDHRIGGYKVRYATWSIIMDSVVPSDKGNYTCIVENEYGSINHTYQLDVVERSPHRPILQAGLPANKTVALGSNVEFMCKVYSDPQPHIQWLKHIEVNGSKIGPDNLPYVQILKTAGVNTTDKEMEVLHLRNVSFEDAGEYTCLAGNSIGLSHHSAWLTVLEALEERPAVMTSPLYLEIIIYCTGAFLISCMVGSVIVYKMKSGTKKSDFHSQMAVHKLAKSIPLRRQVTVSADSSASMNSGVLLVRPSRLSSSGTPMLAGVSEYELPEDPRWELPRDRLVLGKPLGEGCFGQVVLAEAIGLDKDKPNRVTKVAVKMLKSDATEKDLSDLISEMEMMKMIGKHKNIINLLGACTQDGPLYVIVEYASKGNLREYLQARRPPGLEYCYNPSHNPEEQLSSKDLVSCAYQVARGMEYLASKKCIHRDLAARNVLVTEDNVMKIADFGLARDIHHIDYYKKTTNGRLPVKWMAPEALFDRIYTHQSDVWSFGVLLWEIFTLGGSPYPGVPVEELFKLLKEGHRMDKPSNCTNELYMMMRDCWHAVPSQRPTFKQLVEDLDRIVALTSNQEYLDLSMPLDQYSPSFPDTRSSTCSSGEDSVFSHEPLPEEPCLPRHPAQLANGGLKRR
RET, sequence (P07949 29-1114): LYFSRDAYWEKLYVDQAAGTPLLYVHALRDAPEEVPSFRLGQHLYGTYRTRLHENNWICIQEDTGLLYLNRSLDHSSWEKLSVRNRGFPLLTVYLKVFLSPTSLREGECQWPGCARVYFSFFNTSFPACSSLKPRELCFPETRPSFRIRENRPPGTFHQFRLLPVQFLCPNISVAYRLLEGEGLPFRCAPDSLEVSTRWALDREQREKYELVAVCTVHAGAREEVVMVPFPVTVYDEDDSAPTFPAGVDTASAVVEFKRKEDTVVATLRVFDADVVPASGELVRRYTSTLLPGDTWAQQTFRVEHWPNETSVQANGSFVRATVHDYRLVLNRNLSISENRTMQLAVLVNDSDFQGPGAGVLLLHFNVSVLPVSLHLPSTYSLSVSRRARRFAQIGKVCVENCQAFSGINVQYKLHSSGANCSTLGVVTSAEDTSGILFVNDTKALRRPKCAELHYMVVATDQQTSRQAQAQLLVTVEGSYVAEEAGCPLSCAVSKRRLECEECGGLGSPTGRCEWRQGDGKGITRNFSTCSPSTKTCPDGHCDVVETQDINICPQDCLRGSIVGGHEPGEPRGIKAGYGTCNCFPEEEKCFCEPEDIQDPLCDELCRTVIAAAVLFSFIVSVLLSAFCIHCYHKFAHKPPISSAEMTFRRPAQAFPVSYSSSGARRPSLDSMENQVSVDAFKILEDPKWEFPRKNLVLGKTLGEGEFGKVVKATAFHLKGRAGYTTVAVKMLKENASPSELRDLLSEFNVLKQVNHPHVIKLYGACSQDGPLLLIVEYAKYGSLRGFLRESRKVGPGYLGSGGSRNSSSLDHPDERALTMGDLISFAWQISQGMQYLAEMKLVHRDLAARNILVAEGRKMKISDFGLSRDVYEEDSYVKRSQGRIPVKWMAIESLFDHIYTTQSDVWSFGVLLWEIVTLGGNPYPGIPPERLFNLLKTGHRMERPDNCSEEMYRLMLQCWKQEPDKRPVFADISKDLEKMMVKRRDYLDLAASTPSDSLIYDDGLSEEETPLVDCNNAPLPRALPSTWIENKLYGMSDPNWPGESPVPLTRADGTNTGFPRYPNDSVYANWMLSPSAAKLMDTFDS

What is called inhibition is the relative decrease from the control value, in per cent. As for `N#Cc1cc2cnc(Nc3ccc(N4CCNCC4)cc3)nc2n(C2CCCC2)c1=O` [ON 1232580, 8-Cyclopentyl-7-oxo-2-(4-piperazin-1-yl-phenylamino)-7,8-dihydro-pyrido[2,3-d]pyrimidine-6-carbonitrile], the IC50 at FGFR1 stood at 3.09e-08 M; at ABL1 it was 2.01e-08 M; in [1] (Homo sapiens, Granta-519, 72 h), 400 nM; at FYN, 3.29e-08 M; on CDK6/cyclin D3, 2.97e-09 M; in data set [2] (Homo sapiens, DU 145, 72 h), 930 nM. Also, the IC50 on CDK9/cyclin K was 8.06e-09 M; at PDGFRb it was 6.12e-09 M; at CDK4/cyclin D1, under 1e-09 M; at CDK6/cyclin D1 it was under 1e-09 M; at PKG2/PRKG2, over 0.0001 M; on FLT4/VEGFR3, 6.97e-09 M. In addition, the IC50 on CDK4/cyclin D3 is 2.77e-09 M; on FLT3 it was 4.25e-09 M; on RET it was 8.13e-09 M; in data set [4] (Homo sapiens, K562, K-562, 72 h), 1190 nM; in [5] (Homo sapiens, HeLa, 72 h, CellTiter-Glo, read-out: Absolute IC50), 1500 nM; on ARK5/NUAK1 it was 2.28e-09 M. Besides, the inhibition at 100 µM turned out to be 100% in [1] (Homo sapiens, Granta-519, 72 h, read-out: % inhibition at top conc.); 99.9% in data set [2] (Homo sapiens, DU 145, 72 h, top working concentration 100 μM, read-out: % inhibition at top conc.); 100% in data set [4] (Homo sapiens, K562, K-562, 72 h, top working concentration 100 μM, read-out: % inhibition at top conc.); 100% in data set [5] (Homo sapiens, HeLa, 72 h, top working concentration 100 μM, read-out: % inhibition at top conc.). Besides, the “Cytotoxicity, result in words” value in data set [2] (DU 145 cells) is listed as “potent inhibitor”; in data set [3], “potent killer”; in data set [4] (K-562 cells), “potent inhibitor”; in data set [5] (HeLa cells) it was “potent inhibitor”.
On to `CC(=O)c1c(C)c2cnc(Nc3ccc(N4CCNCC4)cn3)nc2n(C2CCCC2)c1=O` [Palbociclib, palbociclib, reference compound], for which the results for the IC50 at FLT4/VEGFR3 and at ARK5/NUAK1 were 1.72e-05 M and 1.91e-06 M, respectively.
The term % inhibition denotes the drop in the measured response relative to a control, in per cent. In the case of `N.N.[Cl][Pt][Cl]` [Cisplatin, reference compound], the “% inhibition at top conc.” value in [1] (GRANTA-519, 72 h, top working concentration 100 μM) amounted to 77.25%; in [2] (DU 145, 72 h, top working concentration 100 μM), 95.44%; in data set [4] (K-562, 72 h, top working concentration 100 μM) it was 98.74%; in [5] (HeLa, 72 h, top working concentration 100 μM) it was 99.18%. In addition, the IC50 was determined as 1680 nM in data set [1] (GRANTA-519, 72 h, CellTiter-Glo); 960 nM in data set [2] (DU 145, 72 h); 3760 nM in [4] (K-562, 72 h).
